According to US20250144067A1, “PERSONALIZED STARVATION THERAPY FOR CANCER” (Faeth Therapeutics, Inc., priority 2021, published 2025):
Structures can show the parent of a compound that is named as a salt. Where two headings read alike, the source gives them in different places.

Key:
[1] = test system: NCI-H292 lung cancer cells; experiment: FDA drug screening, complete media vs cholesterol-free media without statin (TABLE 1); type: cell-based, human
[2] = test system: NCI-H292 lung cancer cells; experiment: FDA drug screening, complete media vs cholesterol-free media with simvastatin (TABLE 2); type: cell-based, human
[3] = Complete minus Cholesterol-free, greater than 0 enhanced anti-cancer activity, about 0 neutral, below 0 antagonist
[4] = NCI-H292 cells, FDA drug library screen, cholesterol-free media without statin
[5] = NCI-H292 cells, FDA drug library screen, complete media
[6] = NCI-H292 cells, cholesterol-free media with simvastatin 0.04 μM, cell growth value in FDA drug screen
[7] = NCI-H292 cells, complete media, cell growth value in FDA drug screen
[8] = complete media minus cholesterol-free media + simvastatin, >0 enhanced anti-cancer activity, about 0 neutral, <0 antagonist
[9] = NCI-H292 cells, drug in cholesterol-free media with simvastatin 0.04 μM
[10] = NCI-H292 cells, drug in complete media
[11] = complete media vs cholesterol-free media + simvastatin (0.04 μM), >0 enhanced anti-cancer activity, about 0 neutral, <0 antagonist
[12] = Complete minus Cholesterol-free, >0 enhanced anti-cancer activity, about 0 neutral, <0 antagonist
[13] = NCI-H292 cells, cholesterol-free media without statin
[14] = NCI-H292 cells, cholesterol-free media without statin, FDA drug library screen
[15] = NCI-H292 cells, complete media, FDA drug library screen
[16] = NCI-H292 cells, FDA drug library screen, cholesterol-free media with simvastatin 0.04 μM
[17] = complete vs cholesterol-free media, greater than 0 enhanced anti-cancer activity, about 0 neutral, below 0 antagonists
[18] = NCI-H292 cells, cholesterol-free media with simvastatin 0.04 μM, FDA drug library screen (TABLE 2)
[19] = NCI-H292 cells, complete media, FDA drug library screen (TABLE 2)
[20] = NCI-H292 cells, FDA library drug in cholesterol-free media with simvastatin 0.04 μM
[21] = NCI-H292 cells, FDA library drug in complete media
[22] = complete vs cholesterol-free media, […]

Chloramphenicol succinate (sodium)
Cholesterol-free [1]: 0.9119
Complete [1]: 0.8447
Difference [1]: −0.07
Cholesterol-free media + simvastatin (0.04 μM) [2]: 0.9173
Complete Media [2]: 0.8083
Difference [2]: −0.11

CC1(C)O[C@@H]2C[C@H]3[C@@H]4CCC5=CC(=O)CC[C@]5(C)[C@@]4(F)[C@@H](O)C[C@]3(C)[C@]2(C(=O)CCl)O1 [Halcinonide]
Difference [1, 3]: −0.18
Cholesterol-free [1, 4]: 0.895
Complete [1, 5]: 0.7117
Cholesterol-free media + simvastatin (0.04 μM) [2, 6]: 0.5751
Complete Media [2, 7]: 0.6822
Difference [2, 8]: 0.11

CCCCN1CCCCC1C(=O)Nc1c(C)cccc1C (stereo not drawn) [Bupivacaine (hydrochloride)]
Difference [1, 3]: −0.15
Cholesterol-free [1, 4]: 1.158
Complete [1, 5]: 1.01
Cholesterol-free media + simvastatin (0.04 μM) [2, 9]: 1.059
Complete Media [2, 10]: 0.8922
Difference [2, 11]: −0.17

CC(=O)c1c(C)c2cnc(Nc3ccc(N4CCNCC4)cn3)nc2n(C2CCCC2)c1=O [Palbociclib (hydrochloride)]
Difference [1, 12]: −0.26
Cholesterol-free [1, 13]: 1.289
Complete ([1]; NCI-H292 cells, complete media): 1.028
Cholesterol-free media + simvastatin (0.04 μM) [2, 9]: 1.037
Complete Media [2, 10]: 0.8185
Difference [2, 11]: −0.22

CN1CCC(=C2c3ccccc3C=Cc3ccccc32)CC1 [Cyproheptadine (hydrochloride)]
Cholesterol-free [1, 14]: 0.9826
Complete [1, 15]: 1.57
Difference ([1]; complete vs cholesterol-free media, >0 enhanced anti-cancer activity, about 0 neutral, <0 antagonist): 0.59
Cholesterol-free media + simvastatin (0.04 μM) [2, 16]: 0.6096
Complete Media [2, 5]: 0.7817
Difference [2, 8]: 0.17

O=C(O)COCCN1CCN(C(c2ccccc2)c2ccc(Cl)cc2)CC1 (stereo not drawn) [Cetirizine (dihydrochloride)]
Difference [1, 12]: −0.28
Cholesterol-free [1, 13]: 1.185
Complete ([1]; NCI-H292 cells, complete media): 0.9092
Cholesterol-free media + simvastatin (0.04 μM) [2, 6]: 0.9045
Complete Media [2, 7]: 0.9315
Difference [2, 8]: 0.03

C[N+](C)(C)C[C@H](O)CC(=O)[O-] [L-Carnitine]
Difference [1, 3]: −0.11
Cholesterol-free [1, 4]: 1.053
Complete [1, 5]: 0.9402
Cholesterol-free media + simvastatin (0.04 μM) [2, 16]: 0.9127
Complete Media [2, 5]: 0.8221
Difference [2, 11]: −0.09

Nc1c(Br)cc(Br)cc1CN[C@H]1CC[C@H](O)CC1 [Ambroxol (hydrochloride)]
Cholesterol-free [1, 13]: 1.285
Complete ([1]; NCI-H292 cells, complete media): 0.8347
Difference [1, 17]: −0.45
Cholesterol-free media + simvastatin (0.04 μM) [2, 18]: 1.005
Complete Media [2, 19]: 0.9822
Difference ([2]; complete media minus cholesterol-free media + simvastatin (0.04 μM), >0 enhanced anti-cancer activity, about 0 neutral, <0 antagonist): −0.02

C[C@]12C=CC(=O)C=C1CC[C@@H]1[C@@H]2[C@@H](O)C[C@@]2(C)[C@H]1CC[C@]2(O)C(=O)CO [Prednisolone]
Difference [1, 12]: −0.02
Cholesterol-free [1, 14]: 0.4941
Complete [1, 15]: 0.4768
Cholesterol-free media + simvastatin (0.04 μM) [2, 9]: 0.6412
Complete Media [2, 10]: 0.4437
Difference [2, 11]: −0.20

COc1cc(S(=O)(=O)[O-])ccc1O.[K+] [Sulfogaiacol]
Difference ([1]; Complete minus Cholesterol-free, […]): −0.01
Cholesterol-free [1, 14]: 0.8896
Complete [1, 15]: 0.8811
Cholesterol-free media + simvastatin (0.04 μM) [2, 18]: 0.9781
Complete Media [2, 19]: 0.9488
Difference ([2]; complete media minus cholesterol-free media + simvastatin (0.04 μM), […]): −0.03

OCc1ccc(O[C@@H]2O[C@H](CO)[C@@H](O)[C@H](O)[C@H]2O)cc1 [Gastrodin]
Cholesterol-free [1]: 1.466
Complete [1]: 1.162
Difference [1]: −0.30
Cholesterol-free media + simvastatin (0.04 μM) [2]: 1.131
Complete Media [2]: 1.355
Difference [2]: 0.22

CCCSc1ccc2nc(NC(=O)OC)[nH]c2c1 [Albendazole]
Cholesterol-free [1]: 0.9001
Complete [1]: 0.9862
Difference [1]: 0.09
Cholesterol-free media + simvastatin (0.04 μM) [2]: 1.236
Complete Media [2]: 0.9882
Difference [2]: −0.25

Metoprolol (Succinate)
Difference [1, 12]: 0.02
Cholesterol-free [1, 14]: 0.9592
Complete [1, 15]: 0.9837
Cholesterol-free media + simvastatin (0.04 μM) [2, 9]: 1.072
Complete Media [2, 10]: 0.8786
Difference [2, 11]: −0.19

Cc1cc(C)cc(OCC2CNC(=O)O2)c1 (stereo not drawn) [Metaxalone]
Difference ([1]; Complete minus Cholesterol-free, greater than 0 enhanced anti-cancer activity, about 0 neutral, below 0 antagonists): −0.49
Cholesterol-free ([1]; NCI-H292 cells in cholesterol-free media without statin): 1.567
Complete ([1]; NCI-H292 cells in complete media): 1.078
Cholesterol-free media + simvastatin (0.04 μM) [2, 20]: 1.3
Complete Media [2, 21]: 1.014
Difference [2, 11]: −0.29

CC(C)c1c(C(=O)Nc2ccccc2)c(-c2ccccc2)c(-c2ccc(F)cc2)n1CC[C@@H](O)C[C@@H](O)CC(=O)O [Atorvastatin (hemicalcium salt)]
Difference [1, 12]: −0.21
Cholesterol-free [1, 13]: 0.7947
Complete ([1]; NCI-H292 cells, complete media): 0.5817
Cholesterol-free media + simvastatin (0.04 μM) [2, 16]: 0.4555
Complete Media [2, 5]: 0.7295
Difference [2, 8]: 0.27

Cc1ccc(NC(=O)c2ccc(CN3CCN(C)CC3)cc2)cc1Nc1nc(-c2cccnc2)cs1 [Masitinib]
Difference [1, 12]: −0.19
Cholesterol-free [1, 13]: 0.8775
Complete ([1]; NCI-H292 cells, complete media): 0.6881
Cholesterol-free media + simvastatin (0.04 μM) [2, 16]: 0.9334
Complete Media [2, 5]: 0.8067
Difference [2, 11]: −0.13

Thiamine nitrate
Difference [1, 12]: −0.26
Cholesterol-free [1, 13]: 0.9749
Complete ([1]; NCI-H292 cells, complete media): 0.7175
Cholesterol-free media + simvastatin (0.04 μM) [2, 9]: 0.9067
Complete Media [2, 10]: 0.7018
Difference [2, 11]: −0.20

CC(C)[C@H](N)C(=O)OCCOCn1cnc2c(=O)[nH]c(N)nc21 [Valacyclovir (hydrochloride)]
Cholesterol-free [1, 13]: 1.143
Complete ([1]; NCI-H292 cells, complete media): 0.7981
Difference [1, 17]: −0.34
Cholesterol-free media + simvastatin (0.04 μM) [2, 16]: 0.9432
Complete Media [2, 5]: 1.26
Difference [2, 8]: 0.32

CC(=O)Nc1c(I)c(NC(C)=O)c(I)c(C(=O)[O-])c1I.[Na+] [Sodium diatrizoate]
Difference [1, 3]: −0.08
Cholesterol-free [1, 4]: 1.128
Complete [1, 5]: 1.045
Cholesterol-free media + simvastatin (0.04 μM) [2, 16]: 0.8717
Complete Media [2, 5]: 1.037
Difference [2, 8]: 0.16

CN(C)C(=O)Oc1cccc([N+](C)(C)C)c1.COS(=O)(=O)[O-] [Neostigmine (methyl sulfate)]
Cholesterol-free [1, 13]: 1.718
Complete ([1]; NCI-H292 cells, complete media): 1.281
Difference [1, 22]: −0.44
Cholesterol-free media + simvastatin (0.04 μM) [2, 16]: 0.8206
Complete Media [2, 5]: 1.308
Difference ([2]; complete media minus cholesterol-free media + simvastatin, […]): 0.49

CC1(C)C(C=C(Cl)Cl)C1C(=O)OCc1cccc(Oc2ccccc2)c1 (stereo not drawn) [Permethrin]
Cholesterol-free [1, 13]: 1.352
Complete ([1]; NCI-H292 cells, complete media): 0.9496
Difference [1, 22]: −0.40
Cholesterol-free media + simvastatin (0.04 μM) [2, 20]: 1.233
Complete Media [2, 21]: 0.8994
Difference ([2]; complete media vs cholesterol-free media + simvastatin (0.04 μM), […]): −0.33

CC(=O)O[C@@]12CO[C@@H]1C[C@H](O)[C@@]1(C)C(=O)[C@H](O)C3=C(C)[C@@H](OC(=O)[C@H](O)[C@@H](NC(=O)OC(C)(C)C)c4ccccc4)C[C@@](O)([C@@H](OC(=O)c4ccccc4)[C@H]21)C3(C)C [Docetaxel]
Difference [1, 12]: 0.04
Cholesterol-free [1, 14]: 0.1661
Complete [1, 15]: 0.2055
Cholesterol-free media + simvastatin (0.04 μM) [2, 6]: 0.2547
Complete Media [2, 7]: 0.2778
Difference [2, 8]: 0.02

CC(=O)O[C@]1(C(C)=O)CC[C@H]2[C@@H]3C[C@H](C)C4=CC(=O)C=C[C@]4(C)[C@@]3(F)[C@@H](O)C[C@@]21C [Fluorometholone acetate]
Cholesterol-free [1, 13]: 0.9866
Complete ([1]; NCI-H292 cells, complete media): 0.5758
Difference [1, 17]: −0.41
Cholesterol-free media + simvastatin (0.04 μM) [2, 16]: 0.6176
Complete Media [2, 5]: 0.9441
Difference [2, 8]: 0.33
